Test in all cases: growth of human tumour cells (NCI), 48 h
In test [1] the test system is IGROV1 ovarian.
Test [2] has as its system KM12 colon.
Test [3] relates to RXF 393 renal.
Test [4] relates to HOP-92 NSCLC.
Test [5] concerns SK-OV-3 ovarian.
The test system of test [6] is A549 NSCLC.
For test [7], the system named is UACC-62 melanoma.
In test [8] the test system is SNB-19 CNS.
Test [9] has as its system NCI-H23 lung.
Test [10] concerns SF-295 CNS.
For test [11], the system named is M14 melanoma.
In test [12] the test system is MCF7 breast.

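A five-concentration, 48-hour dose response in 96-well plates underlies each endpoint, interpolated linearly between surrounding concentrations. Here, GI50 denotes the concentration required for 50% inhibition of growth. TGI is the concentration that stops growth completely.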

As to `CC(N)Cc1cccc(C(F)(F)F)c1` (configuration not stated), the TGI in [1], in [2], in test [3], in [4], in test [5] and in test [6] was greater than 100 µM throughout. Also, the TGI in test [7], in test [8], in test [9], in test [10] and in test [11] was greater than 100 µM in each case.

For `CN(C)CCOc1cc2c(c3ccccc13)-c1ccccc1C2=O`, the TGI in test [1] was determined as 7.35 µM; in [2] it was 3.03 µM; in test [3] it was 5.3 µM; in test [4], 4.25 µM; in [5] it was 24.6 µM; in test [6] it was 22 µM. Further, the TGI in test [7] worked out at 2.97 µM; in test [8], 8.39 µM; in [12], 5.6 µM; in test [9], 5.24 µM; in test [10], 4.42 µM.

For `CO/C(=N/N1CC1C(F)(F)F)c1ccncc1` (configuration not stated), the TGI in test [1], in [2], in test [3], in [4], in test [5] and in test [7] was greater than 100 µM each time. In addition, the TGI in test [8], in [12], in test [9], in test [10] and in test [11] was greater than 100 µM each time.

As for `O=C(CCl)N1CCCCC1C1(c2cc3ccccc3[nH]2)OCCO1` (configuration not stated), the TGI was 0.558 µM in test [1]; 8.48 µM in [2]; 12.8 µM in test [3]; 24.7 µM in test [4]; 20.2 µM in test [5]; 23.3 µM in test [6]. Further, the TGI in test [7] was found to be 7.87 µM; in test [8] it was 31.5 µM; in test [12], 8.97 µM; in test [9], 8.47 µM; in test [10] it was 11.5 µM; in [11], 13.6 µM.

Turning to `O=C(O)C(Cc1cccs1)NC(=O)C(F)(F)F` (configuration not stated), the TGI in test [1], in test [2], in test [3], in test [4], in test [5] and in test [6] was greater than 100 µM each time. For the same compound, the TGI in test [7], in [8], in test [12], in test [9] and in test [10] was greater than 100 µM in each case.

Regarding `CCCCOC(=O)CN1C(=O)c2ccccc2C1=O`, the TGI in test [1], in [2], in [3], in test [4], in test [5] and in [6] was greater than 100 µM each time. Also, the TGI in test [7], in test [8], in test [9], in test [10] and in test [11] was greater than 100 µM each time.

As to `C#CCCCC(=C)C[C@H](OCc1ccccc1)[C@H]1OC(=O)[C@@H]1C`, the TGI in [2], in [3], in test [4], in [5], in [6] and in test [7] was greater than 100 µM in each case. In addition, the TGI in test [8], in test [12], in [9], in test [10] and in test [11] was greater than 100 µM throughout.

In the case of `COC(=O)c1cccc(NC(=O)Nc2ccc3oc(=O)c4ccccc4c3c2)c1`, the GI50 in test [1], in test [4], in test [5], in test [6], in test [12] and in test [9] was greater than 100 µM in each case. Also, the GI50 in [11] was greater than 100 µM. Further, the TGI in test [1], in test [4], in [5], in test [6], in test [12] and in test [9] was greater than 100 µM throughout. Besides, the TGI in [11] was greater than 100 µM.

The values above are taken from PubChem BioAssay (NCI).
